Laboratory results reported in patent US20260048151A1, “HEMICYANINE PUSH-PULL DYES BASED ON CHROMENE ELECTRON DONORS” (UNIVERSITY OF CONNECTICUT, priority 2022, published 2026).
Values joined by “and” are separate entries in the source; they are usually repeats but may differ in a detail not shown here. Equal values may be shown once.

System: intact mouse hearts
Experiment: Optical mapping of cardiac electrical activity in isolated mouse hearts
Method: All animal handling and procedures were performed in accordance with the guidelines from Directive 2010/63/EU of the European Parliament on the protection of animals used for scientific purposes. The experimental protocol was approved by the Italian Ministry of Health (protocol number 944/2018-PR). Transgenic mice (ChR2-mhc6-cre+) with cardiomyocyte-specific expression of Channelrhodopsin-2 (ChR2, H134R variant) were generated and employed in this study. Wild-type mice (C57BL/6J) and ChR2-mhc6-cre+ mice (6 months old) were heparinized (0.1 mL at 5000 units/mL) and anesthetized by inhaled isoflurane (5%). The excised heart was immediately bathed in Krebs-Henseleit (KH) solution and cannulated through the aorta. The KH buffer contained (in mM): 120 NaCl, 5 KCl, 2 MgS2 O4-7H2O, 20 NaHCO3, 1.2 NaH2PO4—H2O, 1.8 CaCl2 and 10 glucose, pH 7.4 when equilibrated with carbogen. Cardiac contraction was inhibited during the entire experiment with 1 μM blebbistatin (Enzo Life Sciences, Farmingdale, NY, USA) in the solution. The cannulated heart was perfused through the aorta (using a horizontal-Langendorff perfusion system) with the KH solution and then transferred to a custom-built optical mapping chamber at a constant flow of 2.5 mL/min at (36±0.5)° C. Two platinum electrodes were placed below the heart for monitoring cardiac electrical activity via electrocardiogram (ECG). 1 mL of perfusion solution containing the voltage sensitive dye (VSD; ElectroFluor730p: 10 μM; di-4-ANBDQPQ: 6 μg/mL) was bolus injected into the aorta. All the experiments were performed at (36±0.5° C.) within 1 hour after dye loading to avoid potential re-distribution of the dye and accumulation of phototoxic by-products.
Optical mapping was performed using a custom-made mesoscope. Stained mouse hearts were illuminated in a wide-field configuration using a 2× objective (TL2x-SAP, Thorlabs, Newton, NJ, USA) and employing four different LED operating at a wavelength centred at 730 nm, 625 nm, 590 nm and 530 nm (M730L5, M625L3, M590L4 and M530L4 Thorlabs, Newton, NJ, USA) followed by excitation band-pass filters at 730/39 nm, 640/40 nm, 589/15 nm (FF01-730/39-25, FF01-640/40-25, FF01-589/15-25, Semrock) and 530/43 nm (MF530-43, Thorlabs) respectively. di-4-ANBDQPQ stained hearts were excited at 625 nm (0.875 mW/mm^2) and a dichroic beam splitter (FF685-Di02-25×36, Semrock) followed by a band-pass filter at 775/140 nm (FF01-775/140-25, Semrock) was used for collecting the emitted fluorescent signal. […] Light intensities were measured at sample site using a photodiode sensor (PD300-3W, Ophir Optronics, Jerusalem, Israel). […]

CCCCCCN(CCCCCC)c1ccc2c(c1)OCC(/C=C/c1c(F)c[n+](CCC[N+](CC)(CC)CC)c3ccccc13)=C2.[Br-].[Br-] [2c]
sensitivity to an AP (APA), % decrease in fluorescence at the peak of an AP (730 nm excitation, compared with di-4-ANBDQPQ): higher than that of di-4-ANBDQPQ
differences in AP kinetics (APRS, APD50, APD70, APD90) (compared with di-4-ANBDQPQ, student's t-test, listed as ElectroFluor730p): no statistically significant differences in AP parameters excepting AP Amplitude
inversion point (isosbestic point) of sensitivity (excitation 730, 590, 530 nm, exponential fit, listed as ElectroFluor730p): ≈ 571 nm and ~571 nm
pharmacological effects of the VSD (isolated mouse hearts): no measurable pharmacological effects
